Square brackets hold non-standard residues; d marks the D form. Ends that are not written are not given here. Peptide text beside a SMILES is read from it. Cha = N[C@@H](CC1CCCCC1)C(=O)O
Experiments:
[1] = tested on: T1, human 20S proteasome (h20S); assay: h20S stimulation, hydrolysis of suc-LLVY-amc (chymotryptic-like activity); type: biochemical
T1 construct: purchased Proteasome Center
Description: Human 20S (h20S) (final concentration of 4 nM) was incubated in the presence or absence of activators (peptides, 0.2–600 μM; MBP 0.2–400 μM; PA26, 0.04–3500 nM) at ambient temperature for 5 min. Substrate (suc-LLVY-amc, 10 μM; boc-LRR-amc, 20 μM; or FAM-LFP, 100 nM) was added immediately before reading. Fluorescence intensity of suc-LLVY-amc and boc-LRR-amc (excitation, 355 nm; emission, 440 nm; cutoff 435 nm) or FAM-LFP (excitation, 490 nm; emission, 520 nm; cutoff, 515 nm) were monitored at 30 to 60 s intervals for 30 min at 25 °C using a Spectramax M5 microplate reader (Molecular Devices; SoftMax Pro 6.5.1). The hydrolysis rate was calculated from the slope of the curve between 100 and 500 s (500 and 1000 s for boc-LRR-amc) in arbitrary units (RFU per s).
Data were processed and fit in GraphPad Prism 8.1.2. The baseline hydrolysis was normalized to the total mean activity for the lowest concentration of every activator assayed in a given plate and the maximal hydrolysis was normalized as reported. The normalized activity was plotted relative to log10(activator). Data was fit to the model for log(agonist) versus response (variable slope). In Eq. (1), X = log[activator, μM] except for PA26-based activators, which are in nanomolar.1 Y=Bottom+(Top−Bottom)/1+10^((logEC50−X)×Hillslope)

[2] = Visual inspection of 10 mM DMSO stocks (solubility); type: physicochemical; settings: 10 mM in DMSO (Suppl Fig 1e)

In the case of `CC(C)C[C@H](NC(=O)[C@@H](N)CC(N)=O)C(=O)N[C@@H](CO)C(=O)N[C@@H](Cc1ccc(O)cc1)C(=O)N[C@@H](CC1CCCCC1)C(=O)N[C@H](C(=O)O)[C@@H](C)O` [Opt5^Y4] (H-NLSY[Cha]T-OH; N-terminus and C-terminus assumed), the “improvement of potency relative to Opt5^YY” value ([1]; ratio of EC50) is reported as ~ 2 fold and the “stimulation of h20S, result in words” value ([1]; suc-LLVY-amc turnover) is reported as “completely inactivated”.
For ANLQYFA [hRpt5-YP2F], the “solubility of DMSO stock, visual” value [2] was “insoluble”.
